Results: the NIST ThermoML archive (doi:10.1021/je400423u)

Experiment: xn = mol fraction of the nth substance listed
Conditions: 101 kPa, Liquid; for mass density: Vibrating tube method; for viscosity: Falling or rolling sphere viscometry

CC(C)CO [2-methyl-1-propanol] + CCC(C)O
Conditions | mass density [kg/m3] | viscosity [mPa·s]
303.15 K, x2 = 0.1009 | 794.484 | –
303.15 K, x2 = 0.2 | 794.891 | –
303.15 K, x2 = 0.3008 | 795.309 | –
303.15 K, x2 = 0.4 | 795.723 | –
303.15 K, x2 = 0.5002 | 796.151 | –
303.15 K, x2 = 0.5999 | 796.585 | –
303.15 K, x2 = 0.7004 | 797.029 | –
303.15 K, x2 = 0.8007 | 797.475 | –
303.15 K, x2 = 0.9005 | 797.918 | –
308.15 K, x2 = 0.1009 | 790.501 | 2.443
308.15 K, x2 = 0.2 | 790.872 | 2.386
308.15 K, x2 = 0.3008 | 791.253 | 2.337
308.15 K, x2 = 0.4 | 791.633 | 2.292
308.15 K, x2 = 0.5002 | 792.024 | 2.248
308.15 K, x2 = 0.5999 | 792.423 | 2.206
308.15 K, x2 = 0.7004 | 792.831 | 2.168
308.15 K, x2 = 0.8007 | 793.242 | 2.139
308.15 K, x2 = 0.9005 | 793.65 | 2.127
313.15 K, x2 = 0.1009 | 786.45 | 2.107
313.15 K, x2 = 0.2 | 786.78 | 2.053
313.15 K, x2 = 0.3008 | 787.122 | 2.005
313.15 K, x2 = 0.4 | 787.465 | 1.962
313.15 K, x2 = 0.5002 | 787.818 | 1.92
313.15 K, x2 = 0.5999 | 788.177 | 1.881
313.15 K, x2 = 0.7004 | 788.546 | 1.845
313.15 K, x2 = 0.8007 | 788.917 | 1.816
313.15 K, x2 = 0.9005 | 789.288 | 1.804
318.15 K, x2 = 0.1009 | 782.34 | 1.824
318.15 K, x2 = 0.2 | 782.624 | 1.772
318.15 K, x2 = 0.3008 | 782.922 | 1.727
318.15 K, x2 = 0.4 | 783.222 | 1.685
318.15 K, x2 = 0.5002 | 783.533 | 1.646
318.15 K, x2 = 0.5999 | 783.848 | 1.608
318.15 K, x2 = 0.7004 | 784.171 | 1.575
318.15 K, x2 = 0.8007 | 784.497 | 1.551
318.15 K, x2 = 0.9005 | 784.827 | 1.54
323.15 K, x2 = 0.1009 | 778.155 | 1.59
323.15 K, x2 = 0.2 | 778.391 | 1.544
323.15 K, x2 = 0.3008 | 778.641 | 1.5
323.15 K, x2 = 0.4 | 778.895 | 1.46
323.15 K, x2 = 0.5002 | 779.158 | 1.422
323.15 K, x2 = 0.5999 | 779.423 | 1.387
323.15 K, x2 = 0.7004 | 779.696 | 1.357
323.15 K, x2 = 0.8007 | 779.974 | 1.336
323.15 K, x2 = 0.9005 | 780.258 | 1.326
328.15 K, x2 = 0.1009 | 773.896 | 1.393
328.15 K, x2 = 0.2 | 774.077 | 1.35
328.15 K, x2 = 0.3008 | 774.275 | 1.309
328.15 K, x2 = 0.4 | 774.479 | 1.27
328.15 K, x2 = 0.5002 | 774.689 | 1.235
328.15 K, x2 = 0.5999 | 774.903 | 1.204
328.15 K, x2 = 0.7004 | 775.122 | 1.178
328.15 K, x2 = 0.8007 | 775.348 | 1.161
328.15 K, x2 = 0.9005 | 775.581 | 1.152
333.15 K, x2 = 0.1009 | 769.551 | 1.225
333.15 K, x2 = 0.2 | 769.674 | 1.186
333.15 K, x2 = 0.3008 | 769.816 | 1.148
333.15 K, x2 = 0.4 | 769.965 | 1.112
333.15 K, x2 = 0.5002 | 770.119 | 1.079
333.15 K, x2 = 0.5999 | 770.277 | 1.051
333.15 K, x2 = 0.7004 | 770.441 | 1.029
333.15 K, x2 = 0.8007 | 770.611 | 1.014
333.15 K, x2 = 0.9005 | 770.793 | 1.006
338.15 K, x2 = 0.1009 | 765.116 | 1.082
338.15 K, x2 = 0.2 | 765.18 | 1.047
338.15 K, x2 = 0.3008 | 765.264 | 1.012
338.15 K, x2 = 0.4 | 765.355 | 0.9794
338.15 K, x2 = 0.5002 | 765.452 | 0.9497
338.15 K, x2 = 0.5999 | 765.551 | 0.9246
338.15 K, x2 = 0.7004 | 765.654 | 0.9053
338.15 K, x2 = 0.8007 | 765.765 | 0.8922
338.15 K, x2 = 0.9005 | 765.89 | 0.8861
343.15 K, x2 = 0.1009 | 760.581 | 0.9613
343.15 K, x2 = 0.2 | 760.585 | 0.9301
343.15 K, x2 = 0.3008 | 760.608 | 0.8988
343.15 K, x2 = 0.4 | 760.64 | 0.8691
343.15 K, x2 = 0.5002 | 760.676 | 0.8429
343.15 K, x2 = 0.5999 | 760.714 | 0.8207
343.15 K, x2 = 0.7004 | 760.754 | 0.8035
343.15 K, x2 = 0.8007 | 760.802 | 0.7921
343.15 K, x2 = 0.9005 | 760.867 | 0.7862

CC(C)(C)O [2-methylpropan-2-ol] + CCC(C)O
Conditions | mass density [kg/m3] | viscosity [mPa·s]
308.15 K, x2 = 0 | 770.36 | 2.589
308.15 K, x2 = 0.1002 | 772.862 | 2.511
308.15 K, x2 = 0.2001 | 775.563 | 2.462
308.15 K, x2 = 0.3008 | 778.356 | 2.414
308.15 K, x2 = 0.3999 | 781.092 | 2.368
308.15 K, x2 = 0.5005 | 783.761 | 2.322
308.15 K, x2 = 0.6004 | 786.229 | 2.278
308.15 K, x2 = 0.6999 | 788.492 | 2.237
308.15 K, x2 = 0.8009 | 790.567 | 2.199
308.15 K, x2 = 0.8998 | 792.397 | 2.168
313.15 K, x2 = 0 | 765.07 | 2.089
313.15 K, x2 = 0.1002 | 767.728 | 2.032
313.15 K, x2 = 0.2001 | 770.539 | 2.001
313.15 K, x2 = 0.3008 | 773.423 | 1.97
313.15 K, x2 = 0.3999 | 776.226 | 1.941
313.15 K, x2 = 0.5005 | 778.999 | 1.912
313.15 K, x2 = 0.6004 | 781.558 | 1.886
313.15 K, x2 = 0.6999 | 783.915 | 1.863
313.15 K, x2 = 0.8009 | 786.091 | 1.843
313.15 K, x2 = 0.8998 | 787.978 | 1.828
318.15 K, x2 = 0 | 759.67 | 1.69
318.15 K, x2 = 0.1002 | 762.547 | 1.671
318.15 K, x2 = 0.2001 | 765.501 | 1.651
318.15 K, x2 = 0.3008 | 768.478 | 1.632
318.15 K, x2 = 0.3999 | 771.356 | 1.613
318.15 K, x2 = 0.5005 | 774.194 | 1.596
318.15 K, x2 = 0.6004 | 776.85 | 1.581
318.15 K, x2 = 0.6999 | 779.306 | 1.569
318.15 K, x2 = 0.8009 | 781.558 | 1.56
318.15 K, x2 = 0.8998 | 783.501 | 1.554
323.15 K, x2 = 0 | 754.19 | 1.409
323.15 K, x2 = 0.1002 | 757.329 | 1.393
323.15 K, x2 = 0.2001 | 760.468 | 1.382
323.15 K, x2 = 0.3008 | 763.574 | 1.371
323.15 K, x2 = 0.3999 | 766.546 | 1.36
323.15 K, x2 = 0.5005 | 769.452 | 1.351
323.15 K, x2 = 0.6004 | 772.176 | 1.343
323.15 K, x2 = 0.6999 | 774.689 | 1.338
323.15 K, x2 = 0.8009 | 776.998 | 1.334
323.15 K, x2 = 0.8998 | 778.948 | 1.333
328.15 K, x2 = 0 | 748.62 | –
328.15 K, x2 = 0.1002 | 752.053 | 1.178
328.15 K, x2 = 0.2001 | 755.328 | 1.171
328.15 K, x2 = 0.3008 | 758.481 | 1.164
328.15 K, x2 = 0.3999 | 761.481 | 1.158
328.15 K, x2 = 0.5005 | 764.427 | 1.154
328.15 K, x2 = 0.6004 | 767.214 | 1.151
328.15 K, x2 = 0.6999 | 769.823 | 1.15
328.15 K, x2 = 0.8009 | 772.229 | 1.15
328.15 K, x2 = 0.8998 | 774.252 | 1.153
333.15 K, x2 = 0 | 742.95 | –
333.15 K, x2 = 0.1002 | 746.671 | 1.007
333.15 K, x2 = 0.2001 | 750.068 | 1.003
333.15 K, x2 = 0.3008 | 753.262 | 0.9994
333.15 K, x2 = 0.3999 | 756.271 | 0.9962
333.15 K, x2 = 0.5005 | 759.241 | 0.9947
333.15 K, x2 = 0.6004 | 762.081 | 0.9943
333.15 K, x2 = 0.6999 | 764.795 | 0.996
333.15 K, x2 = 0.8009 | 767.312 | 0.9994
333.15 K, x2 = 0.8998 | 769.418 | 1.004
338.15 K, x2 = 0 | 737.19 | –
338.15 K, x2 = 0.1002 | 741.149 | 0.8692
338.15 K, x2 = 0.2001 | 744.63 | 0.8679
338.15 K, x2 = 0.3008 | 747.865 | 0.8665
338.15 K, x2 = 0.3999 | 750.893 | 0.8654
338.15 K, x2 = 0.5005 | 753.913 | 0.8659
338.15 K, x2 = 0.6004 | 756.832 | 0.8678
338.15 K, x2 = 0.6999 | 759.643 | 0.8713
338.15 K, x2 = 0.8009 | 762.272 | 0.876
338.15 K, x2 = 0.8998 | 764.451 | 0.8813
343.15 K, x2 = 0 | 731.31 | –
343.15 K, x2 = 0.1002 | 735.411 | 0.7586
343.15 K, x2 = 0.2001 | 738.998 | 0.7589
343.15 K, x2 = 0.3008 | 742.315 | 0.7593
343.15 K, x2 = 0.3999 | 745.431 | 0.7601
343.15 K, x2 = 0.5005 | 748.529 | 0.7616
343.15 K, x2 = 0.6004 | 751.539 | 0.7648
343.15 K, x2 = 0.6999 | 754.435 | 0.769
343.15 K, x2 = 0.8009 | 757.148 | 0.7743
343.15 K, x2 = 0.8998 | 759.383 | 0.7798
